The source of these data is patent publication US5789425A, “Imidazolidinone derivatives, their acid adducts and therapeutic drugs for senile dementia” (Kyorin Pharmaceutical Co., Ltd., priority 1993, dated 1998).

Assay [1] has as its target T1, M1 type muscarinic cholinergic receptor (Rattus norvegicus, UniProt P08482).
T1 construct: crude synaptosome membrane specimen prepared from all brains (except cerebellum and brain stem) of rat; from tissue; host or cells: rat whole brain without cerebellum and brain stem, crude synaptosomal membranes
T1 sequence (P08482 1-460): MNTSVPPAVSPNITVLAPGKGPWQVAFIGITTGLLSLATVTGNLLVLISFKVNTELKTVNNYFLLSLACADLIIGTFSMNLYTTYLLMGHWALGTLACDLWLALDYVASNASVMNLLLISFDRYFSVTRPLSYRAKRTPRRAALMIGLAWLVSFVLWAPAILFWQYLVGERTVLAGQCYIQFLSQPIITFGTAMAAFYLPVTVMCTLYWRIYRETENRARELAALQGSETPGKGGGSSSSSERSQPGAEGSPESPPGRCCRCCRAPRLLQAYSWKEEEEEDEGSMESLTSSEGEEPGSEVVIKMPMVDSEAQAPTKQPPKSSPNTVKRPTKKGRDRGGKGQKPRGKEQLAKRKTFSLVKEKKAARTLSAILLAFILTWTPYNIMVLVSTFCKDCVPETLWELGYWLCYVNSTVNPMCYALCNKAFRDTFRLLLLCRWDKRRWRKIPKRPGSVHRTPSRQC
Briefly: Radioligand binding experiment to M1 type muscarinic cholinergic receptor ([3H]-pirenzepine). The settings on record: 1 nM [3H]-pirenzepine, rat brain synaptosome membrane, 60 minutes at 25° C.; read-out: [^3 H]-PZ (M1) IC50. Here is the method: 1) Radioligand binding experiment to M1 type muscarinic cholinergic receptor
Method: To a crude synaptosome membrane specimen prepared from all brains (except cerebellum and brain stem) of rat, [^3 H]-pirenzepine ([^3 H]-PZ, final concentration: 1 nM) and testing compound were added and the mixture was incubated for 60 minutes at 25° C. After stopped the reaction by filtered with suction, the radioactivity on filter was measured with liquid scintillation counter. The specific binding level of [^3 H]-pirenzepine was determined by subtracting the non-specific binding level in the presence of atropine (1 μM) from total binding level. Putting the [^3 H]-pirenzepine binding in the absence of testing compound on 100, the concentration of compound to decrease by 50% (IC50 value) was made an index of the binding activity of compound to M1 muscarinic receptor (refer to: J. A. D. M. Toner et al, Life Science, 1987, 40, 1981-1987).

Assay [2] concerns the target T2, M2 type muscarinic cholinergic receptor (Rattus norvegicus, UniProt P10980).
T2 construct: crude synaptosome membrane specimen was prepared from the brain stem (medulla oblongata-pons) of rat; from tissue; host or cells: rat brain stem (medulla oblongata-pons), crude synaptosomal membranes
T2 sequence (P10980 1-466): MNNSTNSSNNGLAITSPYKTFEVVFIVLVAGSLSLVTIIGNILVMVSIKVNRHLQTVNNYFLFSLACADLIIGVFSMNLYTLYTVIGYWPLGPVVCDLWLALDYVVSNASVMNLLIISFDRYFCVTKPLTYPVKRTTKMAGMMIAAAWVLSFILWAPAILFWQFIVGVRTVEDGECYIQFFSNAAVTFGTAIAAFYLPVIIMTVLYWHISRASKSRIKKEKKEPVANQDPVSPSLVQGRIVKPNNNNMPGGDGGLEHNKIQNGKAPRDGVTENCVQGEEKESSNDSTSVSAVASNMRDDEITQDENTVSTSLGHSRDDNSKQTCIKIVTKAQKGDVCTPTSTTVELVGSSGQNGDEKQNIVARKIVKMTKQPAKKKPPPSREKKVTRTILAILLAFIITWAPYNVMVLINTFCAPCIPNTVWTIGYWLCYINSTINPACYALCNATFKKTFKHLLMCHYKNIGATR
Briefly: Radioligand binding experiment to M2 type muscarinic cholinergic receptor ([3H]-QNB). The settings on record: 0.1 nM [3H]-QNB, rat brain stem synaptosome membrane; read-out: [^3 H]-QMB (M2) IC50.

Assay [3] relates to M1 and M2 muscarinic receptors. The assay can be described thus: Selectivity to M1 receptor (ratio of IC50 values of M1 and M2 binding experiments). More on the design: species or system rat. The procedure:
3) Selectivity to M1 receptor
This was determined from the ratio of IC50 values of testing compound obtained from the binding experiments of M1 and M2 muscarinic receptors. [formula]

For assay [4], the system named is pirenzepine-induced amnesia. The assay can be described thus: Testing on the pirenzepine-induced amnesia (step-through type passive avoidance). The note with it: orally 60 minutes before acquisition trial; for Reaction latency Mean ± S.E.: retention trial 24 hours later, maximum 300 seconds, pirenzepine-treated mice. It is filed as in vivo, Std:ddy strain male mice. An excerpt: In vivo pharmacological test
Testing on the pirenzepine-induced amnesia
For the experiment animals, Std:ddy strain male mice with body weight of 24 to 33 g (age in week: 5) (Nippon SLC) were used. For the device, a step-through type passive avoidance apparatus (made by Ohara Medical Co., Ltd.) consisting of two light and dark rooms was used. In the acquisition trial, mouse was placed in the light room and, 10 seconds later, the partitive guillotine door was opened. As soon as the mouse moved into the dark room, the guillotine door was closed and electric shock of 43 to 44 V was given for 1 second through the metal grid bars of the floor. The retention trial was conducted 24 hours later since then. […] The induction of amnesia was performed by fixing a mouse at prone position without anesthetization at 20 minutes before learning acquisition trial and injecting pirenzepine (10 μg/2 μl/mouse bilaterally into cerebral ventricles using a microsyringe. Moreover, a group not to administered with pirenzepine before acquisition trial (non-amnesia comparison group) was also provided. The testing compound was administered orally at 60 minutes before acquisition trial. The improvement rate was calculated according to following equation and the results are shown in Table 8 (refer to: M. P. Callfield et al, J. Pharm. Pharmacol.) 1983, 35, 131-132). [formula]

As for `O=C1N(C2=CCCN(Cc3ccccc3)C2)CCN1c1ccc([N+](=O)[O-])cc1` [Example 4, 1-[3-(1-Phenylmethyl-1,2,5,6-tetrahydropyridyl)]-3-(4-nitrophenyl)-2-imidazolidinone], the half-inhibitory concentration (IC50) in assay [1] was 530 nM. Also, the concentration for half-maximal inhibition (IC50) in assay [2] was > 6000 nM. Moreover, the “IC50 (M2)/C50 (M1)” value in assay [3] is on record as > 11.3. Further, in assay [4] (3 mg/kg), the Improvement rate stood at 43.6% and the “Reaction latency Mean ± S.E.” value is 71.1 ± 30.2 s.
Turning to `O=C1N(C2=CCCN(Cc3ccccc3)C2)CCN1c1ccc(Cl)cc1` [Example 17, 1-[3-(1-Phenylmethyl-1,2,5,6-tetrahydropyridyl)]-3-(4-chlorophenyl)-2-imidazolidinone], the IC50 in assay [1] is 370 nM; in assay [2], > 6000 nM. Further, the “IC50 (M2)/C50 (M1)” value in assay [3] was > 16.2. In addition, the figures for the Improvement rate in assay [4] (1 mg/kg) and in assay [4] (3 mg/kg) were 82.7% and 68.8%, respectively. Moreover, the “Reaction latency Mean ± S.E.” value in assay [4] (1 mg/kg) came to 189.9 ± 52.8 s; in assay [4] (3 mg/kg) it was 164.2 ± 37.5 s.

By IC50 is commonly meant the midpoint of a concentration-inhibition curve.
